{"source": "patent US10183033B2", "about": "“Triptolide prodrugs” (priority 2009, dated 2019)", "key": {"Neuroblastoma N2a": {"tested_on": "Neuroblastoma N2a", "assay": "Neuroblastoma cell killing", "type": "cell-based", "method": "(§1) Neuroblastoma N2a and SKNSH cells were treated with triptolide, resulting in dose- and time-dependent cell killing in N2a, with more than 50% of cells killed with 62.5 nM triptolide at 24 hours and nearly 85% of cells killed with 250 nM triptolide at 48 hours (FIG. 19). To confirm the hypothesis that triptolide results in neuroblastoma cell death via an apoptotic pathway, caspase-3 activity was measured as a marker of apoptosis. In both cell lines, increases in caspase activity with higher doses of triptolide and longer duration of therapy."}, "MiaPaca-2 cells": {"tested_on": "MiaPaca-2 cells", "assay": "Comparative in vivo study, orthotopic MiaPaca-2 pancreatic tumor in nude mice", "details": "i.p. daily 60 days", "method": "Thirty nude mice of the strain athymic nu/nu were obtained from National Cancer Institute (NCI) (Rockville, Md.) and kept in a RAR facility. The mice were anaesthetized in accordance with the recommendations of the RAR facility using ketamine 75-200 mg/kg and xylazine 4-8 mg/kg. A small incision 3 mm was made on the left side of the abdominal wall and the spleen was pulled out with forceps far enough to expose and access the pancreas. MiaPaca-2 cell medium was prepared and kept on ice until delivery into the mice. Into each of the mice, 1 million MiaPaca-2 cells suspended in MATRIGEL™ (available from Becton-Dickinson Corporation, Franklin Lakes, N.J.) was injected into the tail of the pancreas (identified by its anatomical attachment with the spleen) using a Hamilton syringe. Following delivery of the cells, the syringe was held steady for an additional 5-10 seconds to permit the MATRIGEL™ to set. The spleen was replaced back into the abdominal cavity, and the abdominal wall was closed by vicryl suture in a continuous manner. The skin was apposed and closed using wound clips. The mice were then transferred to a heating pad until fully recovered before being returned to the cage. Post-operative pain medication (buprenonorphine 0.1 mg/kg) was administered intraperitoneally immediately after full recovery from anaesthesia to prevent respiratory depression and then administered every 12 hours for 2 days. The wound clips were removed from the mice after 7 days of surgery.\nThe mice were then randomized into 3 groups, each group having 10 mice. The groups were as follows: control group, triptolide group and the triptolide prodrug (compound 1) group. The control group consisted of mice that were injected intraperitoneally with vehicle DMSO.\nThe triptolide group subjects were injected with 0.2 mg/kg of triptolide dissolved in DMSO and diluted with phosphate buffered saline to a volume of 100 the intraperitoneal injections being daily over a period of 60 days. The compound 1 subjects were intraperitoneally injected daily for 60 days with 0.28 mg/kg of the compound dissolved in phosphate buffered saline diluted to a volume of 100 μl.\nThe mice were euthanized under anaesthesia at the conclusion of the 60 day treatments. Samples were collected (blood, lung, spleen, liver, kidneys and tumor tissue), and tumor volume and weight were measured and compared among the different groups. Observations were made on the loco-regional growth and cancer growth."}, "MIA PaCa-2 cells": {"tested_on": "MIA PaCa-2 cells", "assay": "Orthotopic mouse model of pancreatic cancer (60 day dosing study)", "type": "in vivo, mice", "details": "i.p. 60 d, compound 1 0.1-0.9 mg/kg; for survival versus vehicle: triptolide 0.2 mg/kg QD, observed another 28 d, FIG. 13, 14", "method": "MIA PaCa-2 cells (1×10^6) were suspended in matrigel and injected into the tail of the pancreas of 4-6 week old female nude mice. Ten days post-cell implantation, mice were injected intraperitoneally with indicated concentrations of compound 1 (0.1, 0.15, 0.3, 0.6 or 0.9 mg/kg) or 0.2 mg/kg Triptolide QD for 60 d. Control mice were injected with saline BID. […] Tumor samples, if any, were harvested from these mice, and tumor weight and volume measured. If tumor burden exceeded University of Minnesota animal care guidelines, mice were sacrificed at earlier time points and their tumors harvested."}, "[1]": {"tested_on": "Pancreatic cancer cells (MiaPaca-2, Panc-1, S2VP10)", "assay": "Comparative in vitro cell viability (Dojindo Cell Counting Kit-8)", "details": "50 to 200 nmol/L, 24 and 48 hours; prodrug with alkaline phosphatase; FIG. 4-6"}, "caspase-3": {"tested_on": "caspase-3", "assay": "Caspase-3 activity in neuroblastoma cells", "type": "cell-based", "details": "N2a and SKNSH cells; FIG. 20", "method": "as §1"}, "Neuroblastoma N2 cells": {"tested_on": "Neuroblastoma N2 cells", "assay": "Orthotopic mouse model of neuroblastoma", "type": "in vivo", "details": "0.4 mg/kg i.p. for 21 days, A/J immunocompetent mice; FIG. 18", "method": "Neuroblastoma N2 cells (1×10^6) were suspended in matrigel and injected into the left retroperitoneal space of 4-6 week old A/J immunocompetent mice. Three days post-cell implantation, mice were injected with 0.4 mg/kg of triptolide intraperitoneally for 21 days. Treatment was stopped at this point, and mice sacrificed. Tumor samples, if any, were harvested from these mice, and tumor weight and volume measured. If tumor burden exceeded University of Minnesota animal care guidelines, mice were sacrificed and their tumors harvested at an earlier time point. Control mice were injected with DMSO for 21 days."}, "alkaline phosphatase": {"tested_on": "alkaline phosphatase", "assay": "In vitro enzymatic conversion (hydrolysis) by alkaline phosphatase", "type": "in vitro ADME, bovine", "details": "bovine", "method": "(§2) Compound 1 is converted into the active triptolide form by action of the enzyme alkaline phosphatase. An in vitro experiment to study the bioconversion of the triptolide prodrug compound of the invention was performed. In vitro bioconversion was simulated using alkaline phosphatase (from bovine intestinal mucosa, Type VII-S available from Sigma-Aldrich (St. Louis, Mo.) in glycine buffer (pH 9.8).\n(§3) The first order degradation constant was calculated by fitting the remaining concentration versus the incubation time. The degradation half-life (t½) of compound 1 was determined to be 2 minutes."}, "[2]": {"details": "Tris buffer (pH 7.4) and Borate buffer (pH 7.4), room temperature"}, "[3]": {"tested_on": "alkaline phosphatase (from bovine intestinal mucosa, Type VII-S)", "assay": "In vitro enzymatic conversion (hydrolysis) by alkaline phosphatase", "type": "in vitro ADME", "details": "alkaline phosphatase in glycine buffer (pH 9.8), FIG. 3", "method": "as §2, §3"}, "[4]": {"tested_on": "S2013, a highly metastatic pancreatic cancer cell line", "assay": "Orthotopic mouse model of pancreatic cancer (21 day dosing study)", "type": "in vivo, mice", "details": "0.42 mg/kg i.p. for 21 d; FIG. 16", "method": "1×10^6 Cells of S2013, a highly metastatic pancreatic cancer cell line, were suspended in matrigel and injected into the tail of the pancreas of 4-6 week old female nude mice. Seven days post-cell implantation, mice were injected intraperitoneally with 0.42 mg/kg of compound 1 for 21 d. Treatment was stopped after 21 d, and mice sacrificed. Tumor samples, if any, were harvested from these mice, and tumor weight and volume measured. If tumor burden exceeded University of Minnesota animal care guidelines, mice were sacrificed and their tumors harvested at an earlier time point. Control mice were injected with saline QD."}, "SkChA-1 cells": {"tested_on": "SkChA-1 cells", "assay": "Subcutaneous mouse model of cholangiocarcinoma", "type": "in vivo, mice", "details": "0.3 mg/kg i.p. BID for 25 days; FIG. 17", "method": "SkChA-1 cells (5×10^5) were suspended in matrigel and injected subcutaneously into the left flank of 4-6 week old female nude mice. Seven days post-cell implantation, mice were injected intraperitoneally with 0.3 mg/kg of compound 1 BID for 25 days. Treatment was stopped at this point, and mice sacrificed. Tumor samples, if any, were harvested from these mice, and tumor weight and volume measured. If tumor burden exceeded University of Minnesota animal care guidelines, mice were sacrificed and their tumors harvested at an earlier time point. Control mice were injected with saline BID."}, "[5]": {"details": "triptolide 0.2 mg/kg, compound 1 0.28 mg/kg"}, "[6]": {"details": "pH 9.8, Alkaline Phosphatase, 37° C., read-out: Enzymatic Hydrolysis (t½), Alkaline Phosphatase, 37° C."}}, "note": "Counter-ions that a name gives are not always drawn. Like-named read-outs stand apart in the source and are kept apart here.", "data": [{"smiles": "CC(C)[C@]12O[C@H]1[C@@H]1O[C@]13[C@]1(O[C@H]1C[C@H]1C4=C(CC[C@@]13C)C(=O)OC4)[C@@H]2O", "note": "[triptolide]", "values": [{"measurement": "cells killed", "setting": "Neuroblastoma N2a; 62.5 nM, 24 hours", "value": "more than 50%"}, {"measurement": "cells killed", "setting": "Neuroblastoma N2a; 250 nM, 48 hours", "value": "~85", "unit": "%"}, {"measurement": "tumor volume vs untreated control", "setting": "MiaPaca-2 cells; [5]", "value": "significantly reduced"}, {"measurement": "survival versus vehicle", "setting": "MIA PaCa-2 cells", "value": "enhanced survival"}, {"measurement": "pancreatic cell viability", "setting": "[1]", "value": "significantly reduced"}, {"measurement": "caspase-3 activity levels", "setting": "caspase-3", "value": "dose- and time-dependent increases"}, {"measurement": "tumor burden (tumor volume and tumor mass) versus control", "setting": "Neuroblastoma N2 cells", "value": "decreased tumor burden"}]}, {"smiles": "CCC(O[C@@H]1[C@@]2(C(C)C)O[C@H]2[C@@H]2O[C@]23[C@]12O[C@H]2C[C@H]1C2=C(CC[C@@]13C)C(=O)OC2)OP(=O)(O)O", "note": "(stereo partly drawn) [Example 4, 14-O-Phosphonooxypropyltriptolide Disodium Salt]", "values": [{"measurement": "half-life", "setting": "alkaline phosphatase; [6]", "value": 17, "unit": "min"}]}, {"smiles": "CC(C)[C@]12O[C@H]1[C@@H]1O[C@]13[C@]1(O[C@H]1C[C@H]1C4=C(CC[C@@]13C)C(=O)OC4)[C@@H]2OCOP(=O)(O)O", "note": "[Compound 1, 14-O-Phosphonooxymethyltriptolide Disodium Salt]", "values": [{"measurement": "degradation after 1 month", "setting": "[2]", "value": "no degradation"}, {"measurement": "pancreatic tumor growth inhibition vs untreated control", "setting": "MiaPaca-2 cells; 0.28 mg/kg compound 1", "value": "considerable pancreatic tumor growth inhibition"}, {"measurement": "impact on body weight", "setting": "MiaPaca-2 cells; [5]", "value": "no apparent significant impact"}, {"measurement": "signs of toxicity", "setting": "MiaPaca-2 cells; [5]", "value": "no apparent signs of toxicity"}, {"measurement": "tumor volume vs untreated control", "setting": "MiaPaca-2 cells; [5]", "value": "significantly reduced"}, {"measurement": "tumor burden (tumor volume or tumor weight) versus control", "setting": "MIA PaCa-2 cells; FIG. 15", "value": "decreased tumor burden"}, {"measurement": "survival versus vehicle", "setting": "MIA PaCa-2 cells", "value": "enhanced survival"}, {"measurement": "pancreatic cell viability", "setting": "[1]", "value": "significantly reduced"}, {"measurement": "half-life", "setting": "alkaline phosphatase; alkaline phosphatase in glycine buffer (pH 9.8), first order fit, read-out: degradation half-life (t½)", "value": 2, "unit": "min"}, {"measurement": "time period in which the majority of conversion to triptolide took place", "setting": "[3]", "value": "≤ 10", "unit": "min"}, {"measurement": "tumor burden (tumor volume or tumor weight) versus control", "setting": "[4]", "value": "decreased tumor burden"}, {"measurement": "tumor burden (tumor volume or tumor weight) versus control", "setting": "SkChA-1 cells", "value": "decreased tumor burden"}]}, {"smiles": "CC(O[C@@H]1[C@@]2(C(C)C)O[C@H]2[C@@H]2O[C@]23[C@]12O[C@H]2C[C@H]1C2=C(CC[C@@]13C)C(=O)OC2)OP(=O)(O)O", "note": "(stereo partly drawn) [Example 3, 14-O-Phosphonooxyethyltriptolide Disodium Salt]", "values": [{"measurement": "half-life", "setting": "alkaline phosphatase; [6]", "value": 9, "unit": "min"}]}]}
